Source: US10155021B2, “Antimicrobial 4-oxoquinolizines” (Emergent Product Development Gaithersburg Inc., priority 2011, dated 2018)
In brackets after ≈: the same amount, converted by molar mass.

Legend:
E. faecium 19434 = assay: MIC, standard panel of Gram-positive and Gram-negative bacteria (CLSI); type: cell-based, Enterococcus faecium; conditions: Enterococcus faecium, 19434; CAMHB; read-out: MIC E. faecium 19434
E. coli ATCC 25922 = assay: MIC, selected panel of Gram-positive and Gram-negative strains (Example 5); type: cell-based, Escherichia coli; conditions: Escherichia coli, ATCC25922; read-out: MIC E. coli ATCC 25922
P. aeruginosa ATCC 27853 = assay: as above; type: cell-based; conditions: Pseudomonas aeruginosa, ATCC27853; read-out: MIC P. aeruginosa ATCC 27853
S. aureus ATCC 25923 = assay: as above; type: cell-based; conditions: Staphylococcus aureus, ATCC25923; read-out: MIC S. aureus ATCC 25923
[1] = tested on: S. aureus ATCC 43300 (MRSA, FQ-S); assay: as above; type: cell-based, Staphylococcus aureus; conditions: Staphylococcus aureus; read-out: MIC S. aureus ATCC 43300 (MRSA, FQ-S)
[2] = tested on: S. aureus BAA-1556 (USA300-Type MRSA, FQ-R); assay: as above; type: cell-based, Staphylococcus aureus; conditions: Staphylococcus aureus; read-out: MIC S. aureus BAA-1556 (USA300-Type MRSA, FQ-R)
B. anthracis = assay: microbe, parasite or virus in culture; type: cell-based; conditions: Bacillus anthracis, read-out: MIC B. anthracis
F. tularensis = assay: microbe, parasite or virus in culture; type: cell-based; conditions: Francisella tularensis, read-out: MIC F. tularensis
B. abortus = assay: microbe, parasite or virus in culture; type: cell-based; conditions: Brucella abortus, read-out: MIC B. abortus
B. pseudomallei = assay: microbe, parasite or virus in culture; type: cell-based; conditions: Burkholderia pseudomallei, read-out: MIC B. pseudomallei
E. cloacae 13047 = assay: MIC, standard panel of Gram-positive and Gram-negative bacteria (CLSI); type: cell-based, Enterobacter cloacae; conditions: Enterobacter cloacae, 13047; CAMHB; read-out: MIC E. cloacae 13047
A. baumannii ATCC 19606 = assay: MIC, selected panel of Gram-positive and Gram-negative strains (Example 5); type: cell-based, Acinetobacter baumannii; conditions: Acinetobacter baumannii, ATCC19606; read-out: MIC A. baumannii ATCC 19606
[3] = tested on: GN10 Pseudomonas aeruginosa; assay: Pre-chequerboard MIC, broth microdilution (Example 6); type: cell-based; conditions: ATCC 27853 / GN10, ATCC 27853, antibiotic susceptible
Excerpt: (§1) A chequerboard technique was used to identify possible synergistic or antagonistic interactions between the 4-oxoquinolizines compounds, levofloxacin and polymyxin B. Levofloxacin was included as a control. […] Final dilutions were made in Mueller-Hinton broth, the specific test medium used for MIC determinations according to CLSI guidelines (CLSI. Methods for Dilution Antimicrobial Susceptibility Tests for Bacteria That Grow Aerobically; Approved Standard-Eighth Edition (2009). CLSI Document M07-A8. CLSI, Wayne, Pa. 19087-1898, USA.). The test medium used was a cation-adjusted Mueller-Hinton Broth II (Becton Dickinson UK Ltd., Oxford Science Park, Oxford, UK, OX4 4DQ).
(§2) The compounds 2, 33 and 35, as well as levofloxacin were tested in combination with polymyxin B on the following isolates: GN31 Acinetobacter baumannii—antibiotic susceptible clinical isolate, GN52 Acinetobacter baumannii—levofloxacin resistant clinical isolate, GN56 Acinetobacter baumannii—levofloxacin resistant clinical isolate, GN48 Klebsiella pneumoniae—NCTC 13443—NDM-1-metallo-R-lactamase and GN10 Pseudomonas aeruginosa—ATCC 27853—antibiotic susceptible reference isolate. All isolates are from the collection maintained at Quotient Bioresearch Ltd., Cambridge, UK.
(§3) The MIC values for the compounds and polymyxin B and levofloxacin were determined by broth microdilution following CLSI guidelines, and the MICs of agents in combination were determined as described by Pillai et.al (Pillai S K, Moellering R C Jr, Eliopoulis G M; Antimicrobial Combinations in Antibiotics in Laboratory Medicine 5th Edition (V. Lorian Ed) (2005) p 365-440). Initial MIC results were used to determine the microtiter plate patterns for the chequerboards. A suitable doubling dilution concentration range was selected such that the combination antibiotic range was at least two concentrations above and four concentrations below the MIC for each isolate. A fixed range of 0.008 to 8 mg/L was tested for polymyxin B except in the case of A. baumannii GN31 where a range of 0.004 to 4 mg/L was tested when in combination with the compounds 2, 33 and 35 as well as levofloxacin.

[4] = tested on: GN31 Acinetobacter baumannii; assay: as above; type: cell-based; conditions: antibiotic susceptible clinical isolate
Excerpt: as §1, §2, §3

[5] = tested on: GN48 Klebsiella pneumoniae; assay: as above; type: cell-based; conditions: GN48 / NCTC 13443, NCTC 13443, NDM-1
Excerpt: as §1, §2, §3

[6] = tested on: GN56 Acinetobacter baumannii; assay: as above; type: cell-based; conditions: levofloxacin resistant clinical isolate
Excerpt: as §1, §2, §3

[7] = tested on: GN10 Pseudomonas aeruginosa; assay: Chequerboard synergy with polymyxin B (FICI); type: cell-based; conditions: combination with polymyxin B
Excerpt: as §1, §2, §3
(§4) From the raw data, fractional inhibitory concentration indices (FICI) were determined for the compounds of the invention and levofloxacin together with polymyxin B for each isolate as follows: FICI=FICX+FICY Where,
(§5) FICX=concentration of the combination antibiotic in a particular row÷MIC of the combination drug alone
(§6) FICY=MIC of polymyxin B in combination÷MIC of the polymyxin B alone
(§7) Additionally isobolograms were created to represent the same data visually. Here, the MIC of polymyxin B was plotted against every concentration of the combination antibiotic up to the MIC.

E. faecalis 29212 = assay: MIC, standard panel of Gram-positive and Gram-negative bacteria (CLSI); type: cell-based, Enterococcus faecalis; conditions: Enterococcus faecalis, 29212; CAMHB; read-out: MIC E. faecalis 29212
[8] = tested on: GN52 Acinetobacter baumannii; assay: Pre-chequerboard MIC, broth microdilution (Example 6); type: cell-based; conditions: levofloxacin resistant clinical isolate
Excerpt: as §1, §2, §3

[9] = tested on: GN48 Klebsiella pneumoniae; assay: Chequerboard synergy with polymyxin B (FICI); type: cell-based; conditions: combination with polymyxin B
Excerpt: as §1, §2, §3, §4, §5, §6, §7

| Compound | MIC (E. faecium 19434) [µg/mL] | MIC (E. coli ATCC 25922) [µg/mL] | MIC (P. aeruginosa ATCC 27853) [µg/mL] | MIC [1] [µg/mL] | MIC [2] [µg/mL] | MIC [3] [µg/mL] | MIC [5] [µg/mL] | other results |
| --- | --- | --- | --- | --- | --- | --- | --- | --- |
| Cc1c(-c2ccc(CN)c(F)c2)ccn2c(=O)c(C(=O)O)cc(C3CC3)c12 [Compound 4, 8-(3-fluoro-4-aminomethyl-phenyl)-1-cyclopropyl-9-methyl-4-oxo-quinolizine-3-carboxylic acid] | 2 (≈ 5.46 µM) | 0.016 (≈ 0.0437 µM) | 1 (≈ 2.73 µM) | 0.032 to 0.064 (≈ 0.0873 to 0.175 µM) | 0.5 (≈ 1.36 µM) | – | – | MIC (S. aureus ATCC 25923): 0.064 µg/mL (≈ 0.175 µM) |
| Cc1c(-c2ccc(N)c(F)c2)ccn2c(=O)c(C(=O)O)cc(C3CC3)c12 [Compound 1, 8-(3-fluoro-4-amino-phenyl)-1-cyclopropyl-9-methyl-4-oxo-quinolizine-3-carboxylic acid] | – | – | – | – | – | – | – | MIC (B. anthracis): < 0.008 µg/mL; MIC (F. tularensis): < 0.03 µg/mL; MIC (B. abortus): 0.125 µg/mL (≈ 0.355 µM); MIC (B. pseudomallei): 0.125 µg/mL (≈ 0.355 µM) |
| Cc1c(-c2ccc(N)cc2)c(F)cn2c(=O)c(C(=O)O)cc(C3CC3)c12 [Compound 7, 8-(4-amino-phenyl)-1-cyclopropyl-7-fluoro-9-methyl-4-oxo-quinolizine-3-carboxylic acid] | 2 (≈ 5.68 µM) | – | – | – | – | – | – | MIC (E. cloacae 13047): 1 µg/mL (≈ 2.84 µM) |
| C[C@H]1COc2c(N3CCN(C)CC3)c(F)cc3c(=O)c(C(=O)O)cn1c23 [Levofloxacin, reference compound] | – | 0.016 (≈ 0.0443 µM) | 1 (≈ 2.77 µM) | 0.25 (≈ 0.692 µM) | 8 (≈ 22.1 µM) | 1 | 64 | MIC (A. baumannii ATCC 19606): 0.5 µg/mL (≈ 1.38 µM); MIC [4]: 0.12 µg/mL; MIC [6]: 32 µg/mL; Interaction with polymyxin B, P. aeruginosa GN10 [7]: No interaction |
| Cc1c(-c2cc(F)c(N)cc2F)ccn2c(=O)c(C(=O)O)cc(C3CC3)c12 [Compound 2, 8-(3,6-difluoro-4-amino-phenyl)-1-cyclopropyl-9-methyl-4-oxo-quinolizine-3-carboxylic acid] | – | – | – | – | – | 1 | 32 | MIC (E. faecalis 29212): < 0.008 µg/mL; MIC [8]: 8 µg/mL; Synergy [9]: partial synergy |
